The conditions of data set [1]: Adrian T. E. et al, Gut (1978), 19, pp 907-909; cited from earlier work.
A further data set relates to lean C57BL/6 mice. The data set is described as follows: Acute food intake in fasted lean mice (BioDAQ, fasting-induced refeeding). Type of data set: in vivo. To be noted: for Mean cumulative food intake / Mean cumulative food intake [g]: Table 5, Study 6A. The method, then: Acute food intake in mice: Lean C57BL male mice are obtained from Charles River, Japan. They are maintained on a 12:12 light:dark cycle (lights off at 10:00 AM, lights on at 10:00 PM), fed pelleted D12450B rodent diet (Research Diets, Inc., New Brunswick, N.J.), and allowed water ad libitum. The mice arrive at 7-8 weeks of age and are acclimatized in the BioDAQ system a minimum of two weeks prior to study. On the day of study, mice are 9-12 weeks old. They are fasted overnight (20-24 h) with free access to water. The day of the study, mice are dosed with s.c. injection (dose volume=10 mL/kg), returned to their cage, and pre-weighed food is immediately placed in the cage. […] When the mice eat the weight reduction of the content of the food-tray is registered. Data is registered each time there is a change in the weight of the individual food-tray. Cumulative food intake is calculated by subtracting the food weight at each time point from the starting food weight.
Mice were administrated a single dose of the peptides (1 μmol/kg s.c.) 30 min before food return and cumulative food intake was measured over 24 h. […] One way ANOVA was carried for each time point out using the software Graph-Pad Prism, version 5.0. The statistical method used for the data in FIG. 1A was an unpaired t-test using the software Graph-Pad Prism, version 5.0. The statistical method used for the data in FIG. 1B and Table 4 was ANOVA, Dunnetts post hoc. Stars in FIGS. 1A and 1B indicate significance versus the vehicle group *) p<0.05, **) p<0.01, ***) p<0.001.
Fasted lean C57BL/6 mice were administrated a single subcutaneous injection of vehicle or peptide approximately 30 min before food return and the cumulative food intake was measured subsequently. One way ANOVA was carried out for each time point using the software Graph-Pad Prism, version 5.0.

The nature of the next data set: in vivo. The settings on record: Göttingen, minipig, iv. The method in brief: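 Catheterised mini-pigs received compound i.v. at 10 nmol/kg in pH 4.0 phosphate/NaCl/tween vehicle, or alternatively i.v. or s.c. at 1–30 nmol/kg in pH 8.0 K2HPO4/tween. Stabilised plasma was sampled up to 13 days and assayed by LC-MS (LLOQ 2 nM). Half-life came from non-compartmental analysis of individual animal profiles.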

Marks after values point to notes of the source that are not given here.

On to `CC[C@H](C)[C@H](NC(=O)[C@H](Cc1ccc(O)cc1)NC(=O)[C@H](CCCNC(=N)N)NC(=O)[C@H](CCCNC(=N)N)NC(=O)[C@H](CC(C)C)NC(=O)[C@H](CC(=O)O)NC(=O)[C@H](C)NC(=O)[C@H](C)NC(=O)[C@H](Cc1ccc(O)cc1)NC(=O)[C@H](CCC(N)=O)NC(=O)[C@H](C)NC(=O)[C@H](CCSC)NC(=O)[C@H](CCC(N)=O)NC(=O)[C@H](CCC(=O)O)NC(=O)[C@@H]1CCCN1C(=O)[C@@H](NC(=O)[C@H](C)NC(=O)[C@H](CC(N)=O)NC(=O)[C@H](CC(=O)O)NC(=O)CNC(=O)[C@@H]1CCCN1C(=O)[C@H](Cc1ccc(O)cc1)NC(=O)[C@@H](NC(=O)[C@@H]1CCCN1C(=O)[C@H](CCC(=O)O)NC(=O)[C@H](CC(C)C)NC(=O)[C@@H]1CCCN1C(=O)[C@H](C)N)C(C)C)[C@@H](C)O)C(=O)N[C@@H](CC(N)=O)C(=O)N[C@@H](CCSC)C(=O)N[C@@H](CC(C)C)C(=O)N[C@H](C(=O)N[C@@H](CCCNC(=N)N)C(=O)N1CCC[C@H]1C(=O)N[C@@H](CCCNC(=N)N)C(=O)N[C@@H](Cc1ccc(O)cc1)C(N)=O)[C@@H](C)O` [SEQ ID NO: 2, hPP(1-36)], for which, in data set [1], the “half-life reported in man” value is 7 min. The “time after administration at which the effect in reducing food intake has disappeared” value with lean C57BL/6 mice (Study 6A, fasted lean C57BL/6 mice, 1.0 μmol/kg s.c.) was found to be 12 h. For the same compound, the “Mean cumulative food intake” value with lean C57BL/6 mice (fasted lean C57BL/6 mice, single 1.0 μmol/kg s.c., 4 hours after injection, vehicle 1.51) stood at 1.18 g; in the data set with lean C57BL/6 mice (mice, 1.0 μmol/kg s.c., 12 hours after injection, vehicle 3.49), 3.19 g; in the data set with lean C57BL/6 mice (mice, 1.0 μmol/kg s.c., 24 hours after injection, vehicle 4.35), 3.87 g; with lean C57BL/6 mice (mice, 1.0 μmol/kg s.c., 36 hours after injection, vehicle 8.41), 7.93 g; in the data set with lean C57BL/6 mice (mice, 1.0 μmol/kg s.c., 48 hours after injection, vehicle 8.87), 8.56 g. In addition, the “Mean cumulative food intake [g]” value with lean C57BL/6 mice (mice, 1.0 μmol/kg s.c., 6 hours after injection, vehicle 2.04) is listed as 1.51** g; in the data set on lean C57BL/6 mice (mice, 1.0 μmol/kg s.c., 8 hours after injection, vehicle 2.61), 1.98** g. In addition, the half-life (commonly the time in which the quantity being followed falls by half) in “in vivo” (15 nmol/kg) is 2.1 min; in the data set “in vivo” (45 nmol/kg) it was 1.86 min.

Values taken from patent US20110275559A1, “Long-Acting Y2 and/or Y4 Receptor Agonists” (Novo Nordisk A/S, priority 2008, published 2011).
